Target: Wee-1 kinase (Homo sapiens (Human), UniProt P30291)
Assay: Measurement of Wee-1 kinase activity (ADP-Glo luminescence)
Assay type: biochemical
Conditions: read-out: Wee1 IC50
Protocol: Method 1: Measurement of Wee-1 Kinase Activity
In the measurement of Wee-1 activity, a commercial peptide Poly(Lys Tyr(4:1)) hydrobromide was purchased from Sigma Aldrich and used as the substrate. Activated Wee-1 kinase was purchased from Invitrogen (PV3817) and an ADP-Glo luminescent kit was purchased from Promega.
All reactions took place in […] volumes in reaction buffer containing 40 mM Tris-HCl and 20 mM magnesium chloride, supplemented with 0.1 mg/mL bovine serum albumin and 2 mM DTT. Compounds were serially diluted in buffer and 5 μL of each concentration pipetted into a white 384 well plate (Sigma Aldrich M6186). A 5 μL aliquot of the Wee-1 enzyme was added to each well and the plate centrifuged for 1 min to ensure mixing of the enzyme and inhibitor.
The plate was incubated at room temperature for 30 minutes before the addition of 2.0 μg/mL of substrate and 30 μM ATP in a 5 μL aliquot. The plate was centrifuged for one minute and incubated for 1 h at RT.
15 μL of ADP-Glo stop reagent was added to each well to quench the reaction and deplete unconverted ATP. The plate was incubated for a further 40 min in the dark at RT.
30 μL of ADP-Glo kinase detection reagent was added to each well, converting ADP to ATP, catalysing the generation of luciferin by luciferase. The plate was shaken for 1 min, and incubated in the dark for an additional hour.
Luminescence from each well was detected using the Biotek Synergy4 HD plate reader and the percentage inhibition of kinase activity calculated for each inhibitor tested. Positive (kinase only) and negative (no kinase) controls were added to each plate to ensure specific interaction of kinase and inhibitor. The IC50 concentration for each inhibitor was calculated by plotting the percentage kinase inhibition against concentration of inhibitor and the curve generated by non-linear regression fitting.

Wee-1 kinase, sequence (P30291 whole entry): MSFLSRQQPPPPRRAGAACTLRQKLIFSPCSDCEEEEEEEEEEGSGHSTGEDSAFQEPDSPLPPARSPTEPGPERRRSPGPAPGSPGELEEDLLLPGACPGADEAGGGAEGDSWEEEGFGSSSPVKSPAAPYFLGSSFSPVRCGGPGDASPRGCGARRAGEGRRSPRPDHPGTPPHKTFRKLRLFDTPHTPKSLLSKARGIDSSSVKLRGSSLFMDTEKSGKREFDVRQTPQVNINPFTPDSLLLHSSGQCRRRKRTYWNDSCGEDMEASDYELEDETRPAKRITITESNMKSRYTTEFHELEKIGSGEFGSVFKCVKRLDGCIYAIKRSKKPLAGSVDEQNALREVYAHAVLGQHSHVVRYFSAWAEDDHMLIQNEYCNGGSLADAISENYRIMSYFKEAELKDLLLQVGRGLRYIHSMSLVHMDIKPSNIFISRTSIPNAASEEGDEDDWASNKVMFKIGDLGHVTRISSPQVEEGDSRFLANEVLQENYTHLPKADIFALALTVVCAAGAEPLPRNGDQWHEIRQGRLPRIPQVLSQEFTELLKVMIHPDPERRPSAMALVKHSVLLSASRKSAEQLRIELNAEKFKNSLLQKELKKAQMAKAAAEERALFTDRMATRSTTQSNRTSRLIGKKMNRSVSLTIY

| Structure (SMILES) | IC50 [nM] |
| --- | --- |
| C=CCn1c(=O)c2cnc(Nc3ccc(N4CCC(F)(F)CC4)cc3)nc2n1-c1cccc(N=S(C)(C)=O)n1 [Example 34, 1-(6-{[Dimethyl(oxo)-λ^6-sulfanylidene]amino}pyridin-2-yl)-6-{[4-(4,4-difluoropiperidin-1-yl)phenyl]amino}-2-(prop-2-en-1-yl)-1H,2H,3H-pyrazolo[3,4-d]pyrimidin-3-one] | 4.6 |
| CC(C)n1c(=O)c2cnc(Nc3ccc(N4CCCNCC4)cc3)nc2n1-c1cccc(N=S(C)(C)=O)n1 [Example 46, 6-{[4-(1,4-Diazepan-1-yl)phenyl]amino}-1-(6-{[dimethyl(oxo)-λ^6-sulfanylidene]amino}pyridin-2-yl)-2-(propan-2-yl)-1H,2H,3H-pyrazolo[3,4-d]pyrimidin-3-one] | 0.9 |
| C=CCn1c(=O)c2cnc(Nc3ccc(N4C[C@@H](C)O[C@@H](C)C4)cc3)nc2n1-c1cccc(N=S(C)(C)=O)n1 [Example 32, 1-(6-{[Dimethyl(oxo)-λ^6-sulfanylidene]amino}pyridin-2-yl)-6-{4-([(2S,6R)-2,6-dimethylmorpholin-4-yl]phenyl)amino}-2-(prop-2-en-1-yl)-1H,2H,3H-pyrazolo[3,4-d]pyrimidin-3-one] | 0.5 |
| C=CCn1c(=O)c2cnc(Nc3ccc(OCCNC)cc3)nc2n1-c1cccc(N=S(C)(C)=O)c1 [Example 27, 1-(3-{[Dimethyl(oxo)-λ^6-sulfanylidene]amino}phenyl)-6-({4-[2-(methylamino)ethoxy]phenyl}amino)-2-(prop-2-en-1-yl)-1H,2H,3H-pyrazolo[3,4-d]pyrimidin-3-one] | 1.7 |
| CC(C)n1c(=O)c2cnc(Nc3cnn(C)c3)nc2n1-c1cccc(N=S2(=O)CCCC2)n1 [Example 56, 6-[(1-Methyl-1H-pyrazol-4-yl)amino]-1-{6-[(1-oxo-1λ^6-thiolan-1-ylidene)amino]pyridin-2-yl}-2-(propan-2-yl)-1H,2H,3H-pyrazolo[3,4-d]pyrimidin-3-one] | 18.5 |
| COc1ccc(Nc2ncc3c(=O)n(C(C)C)n(-c4cccc(N=S(C)(C)=O)n4)c3n2)cc1 [Example 42, 1-(6-{[Dimethyl(oxo)-λ^6-sulfanylidene]amino}pyridin-2-yl)-6-[(4-methoxyphenyl)amino]-2-(propan-2-yl)-1H,2H,3H-pyrazolo[3,4-d]pyrimidin-3-one] | 1.1 |
| C=CCn1c(=O)c2cnc(Nc3ccc(N4CCOCC4)cc3)nc2n1-c1cccc(N=S(C)(C)=O)c1 [Example 31, 1-(3-{[Dimethyl(oxo)-λ^6-sulfanylidene]amino}phenyl)-6-{[4-(morpholin-4-yl)phenyl]amino}-2-(prop-2-en-1-yl)-1H,2H,3H-pyrazolo[3,4-d]pyrimidin-3-one] | 1.4 |
| C=CCn1c(=O)c2cnc(Nc3ccc(N4CCN(C)CC4)c(C)c3)nc2n1-c1cccc(N=S(C)(C)=O)n1 [Example 28, 1-(6-{[Dimethyl(oxo)-λ^6-sulfanylidene]amino}pyridin-2-yl)-6-{[3-methyl-4-(4-methylpiperazin-1-yl)phenyl]amino}-2-(prop-2-en-1-yl)-1H,2H,3H-pyrazolo[3,4-d]pyrimidin-3-one] | 0.7 |
| CCCn1c(=O)c2cnc(Nc3ccc(N4CCOCC4)nc3)nc2n1-c1cccc(N=S(C)(C)=O)n1 [Example 39, 1-(6-{[Dimethyl(oxo)-λ^6-sulfanylidene]amino}pyridin-2-yl)-6-{[6-(morpholin-4-yl)pyridin-3-yl]amino}-2-propyl-1H,2H,3H-pyrazolo[3,4-d]pyrimidin-3-one] | 1.7 |
| C=CCn1c(=O)c2cnc(Nc3ccc(N4CCNCC4)c(CO)c3)nc2n1-c1cccc(N=S(C)(C)=O)c1 [Example 29, 1-(3-{[Dimethyl(oxo)-λ^6-sulfanylidene]amino}phenyl)-6-{[3-(hydroxymethyl)-4-(piperazin-1-yl)phenyl]amino}-2-(prop-2-en-1-yl)-1H,2H,3H-pyrazolo[3,4-d]pyrimidin-3-one] | 0.9 |
| CC(C)n1c(=O)c2cnc(Nc3ccc(N4CCNC(=O)C4)cc3)nc2n1-c1cccc(N=S(C)(C)=O)n1 [Example 48, 4-(4-{[1-(6-{[Dimethyl(oxo)-λ^6-sulfanylidene]amino}pyridin-2-yl)-3-oxo-2-(propan-2-yl)-1H,2H,3H-pyrazolo[3,4-d]pyrimidin-6-yl]amino}phenyl)piperazin-2-one] | 0.9 |
| CCCn1c(=O)c2cnc(Nc3ccc(N4CCN(C)CC4)cc3)nc2n1-c1cccc(N=S(C)(C)=O)n1 [Example 11, 1-(6-{[Dimethyl(oxo)-λ^6-sulfanylidene]amino}pyridine-2-yl)-6-{[4-(4-methylpiperazin-1-yl)phenyl]amino}-2-propyl-1H,2H,3H-pyrazolo[3,4-d]pyrimidin-3-one] | 1.2 |
| C=CCn1c(=O)c2cnc(Nc3ccc(C4CCNCC4)cc3)nc2n1-c1cccc(N=S(C)(C)=O)n1 [Example 13, 1-(6-{[Dimethyl(oxo)-λ^6-sulfanylidene]amino}pyridine-2-yl)-6-{[4-(piperidin-4-yl)phenyl]amino}-2-(prop-2-en-1-yl)-1H,2H,3H-pyrazolo[3,4-d]pyrimidin-3-one] | 1.2 |
| C=CCn1c(=O)c2cnc(Nc3ccc(N4CCN(CC)CC4)cc3)nc2n1-c1cccc(N=S(C)(C)=O)n1 [Example 10, 1-(6-{[Dimethyl(oxo)-λ^6-sulfanylidene]amino}pyridine-2-yl)-6-{[4-(4-ethylpiperazin-1-yl)phenyl]amino}-2-(prop-2-en-1-yl)-1H,2H,3H-pyrazolo[3,4-d]pyrimidin-3-one] | 0.9 |
| C=CCn1c(=O)c2cnc(Nc3ccc(N4CCN(C)CC4)cc3)nc2n1-c1cccc(S(C)(=O)=NC#N)n1 (stereo not drawn) [Example 1, 1-{6-[(Cyanoimino)(methyl)oxo-λ^6-sulfanyl]pyridin-2-yl}-6-{[4-(4-methylpiperazin-1-yl)phenyl]amino}-2-(prop-2-en-1-yl)-1H,2H,3H-pyrazolo[3,4-d]pyrimidin-3-one] | 1.1 |

The remaining lines, values ahead:

| IC50 [nM] | Structure (SMILES) |
| --- | --- |
| 66 | CC(C)n1c(=O)c2cnc(Nc3cccc(C(F)(F)F)c3)nc2n1-c1cccc(N=S(C)(C)=O)n1 [Example 73, 1-(6-{[Dimethyl(oxo)-λ^6-sulfanylidene]amino}pyridin-2-yl)-2-(propan-2-yl)-6-{[3-(trifluoromethyl)phenyl]amino}-1H,2H,3H-pyrazolo[3,4-d]pyrimidin-3-one] |
| 68 | CC(C)n1c(=O)c2cnc(Nc3ccc(F)cc3F)nc2n1-c1cccc(N=S(C)(C)=O)n1 [Example 65, 6-[(2,4-Difluorophenyl)amino]-1-(6-{[dimethyl(oxo)-λ^6-sulfanylidene]amino}pyridin-2-yl)-2-(propan-2-yl)-1H,2H,3H-pyrazolo[3,4-d]pyrimidin-3-one] |
| 1000 | C=CCn1c(=O)c2cnc(NC34CC(C3)C4)nc2n1-c1cccc(N=S(C)(C)=O)n1 [Example 63, 6-({Bicyclo[1.1.1]pentan-1-yl}amino)-1-(6-{[dimethyl(oxo)-λ^6-sulfanylidene]amino}pyridin-2-yl)-2-(prop-2-en-1-yl)-1H,2H,3H-pyrazolo[3,4-d]pyrimidin-3-one] |
| 0.8 | C=CCn1cc(Nc2ncc3c(=O)n(CC=C)n(-c4cccc(N=S(C)(C)=O)n4)c3n2)cn1 [Example 95, 2-Allyl-6-((1-allyl-1H-pyrazol-4-yl)amino)-1-(6-((dimethyl(oxo)-λ^6-sulfaneylidene)amino)pyridin-2-yl)-1,2-dihydro-3H-pyrazolo[3,4-d]pyrimidin-3-one] |
| 0.6 | CC(C)n1c(=O)c2cnc(Nc3ccc(Cl)cc3)nc2n1-c1cccc(N=S(C)(C)=O)n1 [Example 61, 6-[(4-Chlorophenyl)amino]-1-(6-{[dimethyl(oxo)-λ^6-sulfanylidene]amino}pyridin-2-yl)-2-(propan-2-yl)-1H,2H,3H-pyrazolo[3,4-d]pyrimidin-3-one] |
| 0.2 | C=CCn1c(=O)c2cnc(Nc3ccc(N(C)CCOC)cc3)nc2n1-c1cccc(N=S(C)(C)=O)n1 [Example 89, 1-(6-{[Dimethyl(oxo)-λ^6-sulfanylidene]amino}pyridin-2-yl)-6-({4-[(2-methoxyethyl)(methyl)amino]phenyl}amino)-2-(prop-2-en-1-yl)-1H,2H,3H-pyrazolo[3,4-d]pyrimidin-3-one] |
| 8.8 | CS(C)(=O)=Nc1cccc(-n2c3nc(Nc4ccc(N5CCOCC5)cc4)ncc3c(=O)n2CC2CC2)n1 [Example 92, 2-(Cyclopropylmethyl)-1-(6-{[dimethyl(oxo)-λ^6-sulfanylidene]amino}pyridin-2-yl)-6-{[4-(morpholin-4-yl)phenyl]amino}-1H,2H,3H-pyrazolo[3,4-d]pyrimidin-3-one] |
| 0.4 | C=CCn1c(=O)c2cnc(Nc3ccc(N4CCNC(C(F)(F)F)C4)cc3)nc2n1-c1cncc(N=S(C)(C)=O)n1 (racemic) [Example 93, rac-1-(6-{[Dimethyl(oxo)-λ^6-sulfanylidene]amino}pyrazin-2-yl)-2-(prop-2-en-1-yl)-6-({4-[3-(trifluoromethyl)piperazin-1-yl]phenyl}amino)-1H,2H,3H-pyrazolo[3,4-d]pyrimidin-3-one] |
| 22.1 | C=CCn1c(=O)c2cnc(Nc3ccc(N4CCOCC4)cc3)nc2n1-c1cccc(CN=S(C)(C)=O)n1 [Example 91, 1-[6-({[Dimethyl(oxo)-λ^6-sulfanylidene]amino}methyl)pyridin-2-yl]-6-{[4-(morpholin-4-yl)phenyl]amino}-2-(prop-2-en-1-yl)-1H,2H,3H-pyrazolo[3,4-d]pyrimidin-3-one] |
